Structures are written as SMILES.

The subject of test [1] is naturally occurring lymphomas. Details: method as in PMID 30061364. As to conditions: canines with lymphomas; cited from earlier work.
Test [2] deals with advanced, refractory solid tumors or lymphomas. Put plainly: Phase 1 trial of LMP776: tumor response (RECIST v1.1), cycles completed. The format is in vivo, human. On the procedure: Tumor responses were evaluated by serial CT scans according to RECIST v1.1 criteria. CT scans were performed every other cycle during the first year, then every 3 cycles after the first year. Toxicities associated with LMP776 were evaluated according to criteria specified in CTCAE version 4.0; toxicities associated with LMP744 were evaluated according to the criteria specified in CTCAE version 4.03 (on or before March 31, 2018) or version 5.0 (on or after April 1, 2018). Criteria for all versions can be found at https://ctep.cancer.gov/protocolDevelopment/electronic_applications/ctc.htm. Any patient who received a dose of either agent was considered eligible for toxicity evaluation.

As for `COc1cc2c3c(n(CCCNCCO)c(=O)c2cc1OC)-c1cc2c(cc1C3=O)OCO2` [LMP744], in test [1], the Responders is reported as 13 of 19 and the Response rate is recorded as 68.4%.

Regarding `COc1cc2c3c(n(CCCn4ccnc4)c(=O)c2cc1OC)-c1cc2c(cc1C3=O)OCO2` [LMP776], in test [1], the Responders was 7 of 24 and the Response rate is listed as 29.2%. Further, in test [2] (RECIST v1.1, n = 34), the Objective responses result is reported as “no objective responses were measured”. Moreover, the Best response entry in test [2] (in vivo) was “stable disease”. The “Longest duration of SD” value in test [2] (patient 45, pancreatic cancer) is reported as 9 cycles.

The values above are taken from article PMC12122562, “Phase 1 studies of the indenoisoquinolines LMP776 and LMP744 in patients with solid tumors and lymphomas” (Cancer Chemotherapy and Pharmacology, 2025).
